Reference: patent US8129355B2, “Ketone ligands for modulating the expression of exogenous genes via an ecdysone receptor complex” (priority 2002, dated 2012)

What was measured:
[1] = target: T1, Gal4 DBD/AaEcR (DEF) with VP16-βRXR-E (Aedes aegypti, UniProt P49880); assay: cell-based; format: cell-based
T1 construct: The wildtype D, E, and F domains from mosquito Aedes aegypti EcR (“AaEcR-DEF”); expressed in transfected cells; host or cells: 3T3 cells, transient transfection (Superfect)
Experimental: 3T3 cells were trypsinized and plated at 2.5×10^3 cells/well on a 96-well plate. After incubation for 24 h at 37° C. under 5% CO2, cells were transfected with the Gal4 DBD/AaEcR (DEF) gene expression cassette and the reporter plasmid, pFRLuc, containing a 5XGAL4 response element and the firefly luciferase gene in serum free media using Superfect (Qiagen). After transfection for 4 h at 37° C., the cells were treated with ligand in serum media. […] Single dose testing was performed at 33 μM.

[2] = target: T2, GAL4 DBD (1-147)-CfEcR(DEF)/VP16AD-βRXREF-LmUSPEF (Choristoneura fumiferana, UniProt O77240); assay: 27-63 assay: luciferase reporter gene expression in stable CHO cell clone 27-63
T2 sequence (O77240 191-513): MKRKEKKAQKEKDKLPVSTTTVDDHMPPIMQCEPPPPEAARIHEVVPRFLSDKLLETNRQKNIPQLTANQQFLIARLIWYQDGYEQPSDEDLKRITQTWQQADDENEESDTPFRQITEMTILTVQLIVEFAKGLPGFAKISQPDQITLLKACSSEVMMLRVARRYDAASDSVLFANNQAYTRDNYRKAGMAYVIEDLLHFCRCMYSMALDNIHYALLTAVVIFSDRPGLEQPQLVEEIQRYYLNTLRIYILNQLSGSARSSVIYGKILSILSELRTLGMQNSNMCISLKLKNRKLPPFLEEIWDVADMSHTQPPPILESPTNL
T2 sequence (P28702 296-455 partner limits assumed): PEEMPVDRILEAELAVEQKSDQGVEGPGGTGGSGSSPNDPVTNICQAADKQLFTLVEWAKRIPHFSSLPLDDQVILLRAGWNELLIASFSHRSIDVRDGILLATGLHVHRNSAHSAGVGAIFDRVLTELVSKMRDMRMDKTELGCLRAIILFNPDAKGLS
From the text: GAL4 DBD (1-147)-CfEcR(DEF)/VP16AD-βRXREF-LmUSPEF: The wild-type D, E, and F domains from spruce budworm Choristoneura fumiferana EcR (“CfEcR-DEF”; SEQ ID NO: 1) were fused to a GAL4 DNA binding domain (“Gal4 DBD1-147”; nucleotides 31 to 471 of SEQ ID NO: 2) and placed under the control of a phosphoglycerate kinase promoter (“PGK”; SEQ ID NO: 3). Helices 1 through 8 of the EF domains from Homo sapiens RXRβ and helices 9 through 12 of the EF domains of Locusta migratoria Ultraspiracle Protein (“HsRXRβ-EF-LmUSP-EF”; SEQ ID NO: 4) were fused to the transactivation domain from VP16 (“VP16AD”; SEQ ID NO: 5) and placed under the control of an elongation factor-1α promoter (“EF-1α”; SEQ ID NO: 6). Five consensus GAL4 response element binding sites (“5XGAL4RE”; comprising 5 copies of a GAL4RE comprising SEQ ID NO: 7) were fused to a synthetic TATA minimal promoter (SEQ ID NO: 8) and placed upstream of the luciferase reporter gene (SEQ ID NO: 9).
CHO cells were transiently transfected with transcription cassettes for GAL4 DBD (1-147) CfEcR(DEF) and for VP16AD βRXREF-LmUSPEF controlled by ubiquitously active cellular promoters (PGK and EF-1α, respectively) on a single plasmid. Stably transfected cells were selected by Zeocin resistance. Individually isolated CHO cell clones were transiently transfected with a GAL4 RE-luciferase reporter (pFR Luc). 27-63 clone was selected using Hygromycin.
Cells were trypsinized and diluted to a concentration of 2.5×10^4 cells mL. 100 μL of cell suspension was placed in each well of a 96 well plate and incubated at 37° C. under 5% CO2 for 24 h. Ligand stock solutions were prepared in DMSO and diluted 300 fold for all treatments. Dose response testing consisted of 8 concentrations ranging from 33 μM to 0.01 μM.
Luciferase reporter gene expression was measured 48 h after cell treatment using Bright-Glo™ Luciferase Assay System from Promega (E2650). Luminescence was detected at room temperature using a Dynex MLX microtiter plate luminometer.
Fold inductions were calculated from single dose testing by dividing relative light units (RLU) in ligand treated cells by RLU in DMSO treated cells. BC50s were calculated from dose response data using a three-parameter logistic model.

[3] = maximum fold induction at any concentration relative to that of GS-E ligand

T1 sequence (P28704 286-520 A311G/G315S/G445S/I449V): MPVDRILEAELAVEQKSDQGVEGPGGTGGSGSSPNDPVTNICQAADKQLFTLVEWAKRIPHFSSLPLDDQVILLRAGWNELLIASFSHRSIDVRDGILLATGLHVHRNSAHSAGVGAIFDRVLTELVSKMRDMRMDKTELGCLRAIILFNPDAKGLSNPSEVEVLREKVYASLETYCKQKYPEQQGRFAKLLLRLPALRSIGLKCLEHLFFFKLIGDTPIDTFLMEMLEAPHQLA
T1 sequence (P49880 405-776): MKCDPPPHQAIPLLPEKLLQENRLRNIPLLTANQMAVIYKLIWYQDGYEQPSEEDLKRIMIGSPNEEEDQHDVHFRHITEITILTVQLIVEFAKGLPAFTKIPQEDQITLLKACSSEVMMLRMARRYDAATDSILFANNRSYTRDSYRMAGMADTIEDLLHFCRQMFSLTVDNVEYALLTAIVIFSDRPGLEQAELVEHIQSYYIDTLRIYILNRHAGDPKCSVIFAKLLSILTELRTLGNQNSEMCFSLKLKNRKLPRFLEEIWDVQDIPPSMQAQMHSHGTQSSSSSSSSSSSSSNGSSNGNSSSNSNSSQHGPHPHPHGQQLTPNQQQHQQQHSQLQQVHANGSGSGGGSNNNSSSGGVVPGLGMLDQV

## CCc1ccc(C(=O)NC2(C(=O)c3cc(C)cc(C)c3)CCCC2)cc1 [Example 138]
[1]; average, dose response 33 μM to 0.01 μM, three-parameter logistic model, read-out: AA_3T3 LC50
  LC50 (half-maximal ligand concentration for reporter induction): ~4.7 µM
[1]; [3]
  AA_3T3 Rel Max FI: 0.22
[1]; single dose 33 μM, RLU ligand treated / RLU DMSO treated cells
  Fold Induction Average, AA_3T3 Assay (33 μM): 2134
[2]; [3]
  27-63 Rel Max FI: 0.75
[2]; read-out: 27-63 LC50, average, dose response, three-parameter logistic model
  CC50: 3.59 µM
